Measured values from patent publication US9073874B2, “Cyclic N,N′-diarylthioureas and N,N′-diarylureas-androgen receptor antagonists, anticancer agent, method for preparation and use thereof” (priority 2010, dated 2015).

What was measured:
[1] = system: a2 (non-selective); assay: competitive radioligand binding assay, a2 (non-selective) (antagonist radioligand); settings: 10 μM
[2] = system: BZD (central); assay: competitive radioligand binding assay, BZD (central) (agonist radioligand); settings: 10 μM
[3] = biological target: CB1 (h) (Homo sapiens, UniProt P21554); assay: competitive radioligand binding assay, CB1 (h) (agonist radioligand)
CB1 (h), sequence (P21554 whole entry): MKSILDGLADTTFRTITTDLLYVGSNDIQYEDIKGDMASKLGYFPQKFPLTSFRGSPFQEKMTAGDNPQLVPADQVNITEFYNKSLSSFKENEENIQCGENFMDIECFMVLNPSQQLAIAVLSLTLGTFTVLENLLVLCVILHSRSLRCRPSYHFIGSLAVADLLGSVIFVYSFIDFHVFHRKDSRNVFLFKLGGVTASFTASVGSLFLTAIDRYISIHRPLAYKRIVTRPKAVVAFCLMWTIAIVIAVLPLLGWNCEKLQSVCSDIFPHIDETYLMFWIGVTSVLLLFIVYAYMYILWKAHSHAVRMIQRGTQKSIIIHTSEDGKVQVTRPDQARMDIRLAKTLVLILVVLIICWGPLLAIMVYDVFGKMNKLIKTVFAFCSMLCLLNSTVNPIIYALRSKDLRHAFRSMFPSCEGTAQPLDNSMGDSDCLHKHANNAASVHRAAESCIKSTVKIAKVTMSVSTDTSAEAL

[4] = biological target: CRF1 (h) (Homo sapiens, UniProt P34998); assay: competitive radioligand binding assay, CRF1 (h) (agonist radioligand)
CRF1 (h), sequence (P34998 24-415): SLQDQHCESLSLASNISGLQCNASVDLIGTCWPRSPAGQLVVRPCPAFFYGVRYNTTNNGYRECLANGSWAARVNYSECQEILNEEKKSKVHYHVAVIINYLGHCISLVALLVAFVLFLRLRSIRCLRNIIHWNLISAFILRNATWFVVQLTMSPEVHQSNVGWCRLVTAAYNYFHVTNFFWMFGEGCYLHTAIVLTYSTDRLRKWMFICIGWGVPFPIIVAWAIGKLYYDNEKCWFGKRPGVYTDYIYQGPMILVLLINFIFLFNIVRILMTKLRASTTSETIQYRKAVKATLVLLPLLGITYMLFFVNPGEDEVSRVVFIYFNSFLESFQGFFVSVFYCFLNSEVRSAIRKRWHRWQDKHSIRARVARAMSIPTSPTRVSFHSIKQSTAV

[5] = biological target: D1 (h) (Homo sapiens, UniProt P21728); assay: competitive radioligand binding assay, D1 (h) (antagonist radioligand)
D1 (h), sequence (P21728 whole entry): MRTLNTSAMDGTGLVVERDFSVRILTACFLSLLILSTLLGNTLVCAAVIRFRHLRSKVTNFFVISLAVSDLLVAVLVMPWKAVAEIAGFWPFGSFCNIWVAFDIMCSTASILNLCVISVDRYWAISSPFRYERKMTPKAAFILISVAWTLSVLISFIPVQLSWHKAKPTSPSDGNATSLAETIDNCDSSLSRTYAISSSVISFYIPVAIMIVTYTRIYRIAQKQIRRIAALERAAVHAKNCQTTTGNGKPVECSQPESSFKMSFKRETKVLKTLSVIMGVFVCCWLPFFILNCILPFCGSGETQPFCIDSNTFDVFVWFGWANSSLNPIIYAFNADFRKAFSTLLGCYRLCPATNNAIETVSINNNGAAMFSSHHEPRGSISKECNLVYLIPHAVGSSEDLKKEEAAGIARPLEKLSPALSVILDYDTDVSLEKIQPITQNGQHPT

[6] = biological target: D3 (h) (Homo sapiens, UniProt P35462); assay: competitive radioligand binding assay, D3 (h) (antagonist radioligand)
D3 (h), sequence (P35462 whole entry): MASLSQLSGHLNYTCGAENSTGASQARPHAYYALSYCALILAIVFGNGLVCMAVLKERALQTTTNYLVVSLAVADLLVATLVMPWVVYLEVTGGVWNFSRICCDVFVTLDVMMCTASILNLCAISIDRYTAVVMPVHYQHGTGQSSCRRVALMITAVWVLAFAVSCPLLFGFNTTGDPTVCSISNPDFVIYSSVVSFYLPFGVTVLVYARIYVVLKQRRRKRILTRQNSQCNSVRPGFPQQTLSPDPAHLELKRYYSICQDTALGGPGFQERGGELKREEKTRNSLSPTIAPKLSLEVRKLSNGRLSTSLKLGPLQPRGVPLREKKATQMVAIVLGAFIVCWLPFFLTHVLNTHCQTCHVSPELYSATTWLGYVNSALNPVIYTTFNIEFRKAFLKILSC

[7] = system: T1, GABA (non-selective) receptors; assay type: binding
T1 construct: other: 10 μM; GABA (non-selective) (agonist radioligand); activity towards GABA (non-selective) receptors (in words)

[8] = biological target: H1 (h) (Homo sapiens, UniProt P35367); assay: competitive radioligand binding assay, H1 (h) (antagonist radioligand)
H1 (h), sequence (P35367 whole entry): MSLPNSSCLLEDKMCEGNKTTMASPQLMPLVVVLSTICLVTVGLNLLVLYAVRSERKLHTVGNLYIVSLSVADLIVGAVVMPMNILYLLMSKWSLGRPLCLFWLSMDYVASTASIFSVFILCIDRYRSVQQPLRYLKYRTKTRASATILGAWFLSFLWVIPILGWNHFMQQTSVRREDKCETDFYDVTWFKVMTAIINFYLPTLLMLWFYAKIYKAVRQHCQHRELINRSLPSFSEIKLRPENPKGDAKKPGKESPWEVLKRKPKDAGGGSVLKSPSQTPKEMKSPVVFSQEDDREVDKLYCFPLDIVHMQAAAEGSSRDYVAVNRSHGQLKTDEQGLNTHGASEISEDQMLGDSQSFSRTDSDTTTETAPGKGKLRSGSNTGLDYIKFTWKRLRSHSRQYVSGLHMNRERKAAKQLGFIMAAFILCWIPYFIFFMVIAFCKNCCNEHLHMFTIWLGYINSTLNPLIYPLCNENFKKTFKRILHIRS

[9] = biological target: H3 (h) (Homo sapiens, UniProt Q9Y5N1); assay: competitive radioligand binding assay, H3 (h) (agonist radioligand)
H3 (h), sequence (Q9Y5N1 whole entry): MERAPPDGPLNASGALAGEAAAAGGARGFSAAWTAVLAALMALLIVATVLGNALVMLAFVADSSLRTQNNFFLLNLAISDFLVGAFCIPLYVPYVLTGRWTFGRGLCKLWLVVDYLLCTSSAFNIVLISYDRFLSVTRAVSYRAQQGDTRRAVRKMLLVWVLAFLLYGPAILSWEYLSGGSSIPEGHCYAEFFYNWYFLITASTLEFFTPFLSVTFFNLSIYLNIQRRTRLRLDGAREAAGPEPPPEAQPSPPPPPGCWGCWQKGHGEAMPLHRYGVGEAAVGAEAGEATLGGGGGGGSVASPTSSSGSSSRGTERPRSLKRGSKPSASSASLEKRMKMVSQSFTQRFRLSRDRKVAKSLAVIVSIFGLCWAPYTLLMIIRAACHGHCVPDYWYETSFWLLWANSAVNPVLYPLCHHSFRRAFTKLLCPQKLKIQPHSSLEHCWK

[10] = biological target: CysLT1 (LTD4) (h) (Homo sapiens, UniProt Q9Y271); assay: competitive radioligand binding assay, CysLT1 (LTD4) (h) (agonist radioligand)
CysLT1 (LTD4) (h), sequence (Q9Y271 whole entry): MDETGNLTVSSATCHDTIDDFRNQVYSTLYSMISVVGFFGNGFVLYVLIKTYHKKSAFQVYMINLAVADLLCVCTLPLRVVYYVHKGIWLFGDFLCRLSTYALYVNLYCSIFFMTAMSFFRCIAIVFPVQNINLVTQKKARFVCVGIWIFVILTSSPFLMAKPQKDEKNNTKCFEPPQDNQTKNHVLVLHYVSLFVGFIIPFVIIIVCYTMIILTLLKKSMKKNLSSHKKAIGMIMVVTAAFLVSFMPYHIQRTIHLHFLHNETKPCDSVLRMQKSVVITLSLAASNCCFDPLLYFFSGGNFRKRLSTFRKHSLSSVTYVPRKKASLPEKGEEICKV

[11] = system: PCP; assay: competitive radioligand binding assay, PCP (antagonist radioligand); settings: 10 μM
[12] = system: ER (non-selective) (h); assay: competitive radioligand binding assay, ER (non-selective) (h) (agonist radioligand); parameters: species or system human; settings: 10 μM
[13] = biological target: PR (h) (Homo sapiens, UniProt P06401); assay: competitive radioligand binding assay, PR (h) (agonist radioligand)
PR (h), sequence (P06401 whole entry): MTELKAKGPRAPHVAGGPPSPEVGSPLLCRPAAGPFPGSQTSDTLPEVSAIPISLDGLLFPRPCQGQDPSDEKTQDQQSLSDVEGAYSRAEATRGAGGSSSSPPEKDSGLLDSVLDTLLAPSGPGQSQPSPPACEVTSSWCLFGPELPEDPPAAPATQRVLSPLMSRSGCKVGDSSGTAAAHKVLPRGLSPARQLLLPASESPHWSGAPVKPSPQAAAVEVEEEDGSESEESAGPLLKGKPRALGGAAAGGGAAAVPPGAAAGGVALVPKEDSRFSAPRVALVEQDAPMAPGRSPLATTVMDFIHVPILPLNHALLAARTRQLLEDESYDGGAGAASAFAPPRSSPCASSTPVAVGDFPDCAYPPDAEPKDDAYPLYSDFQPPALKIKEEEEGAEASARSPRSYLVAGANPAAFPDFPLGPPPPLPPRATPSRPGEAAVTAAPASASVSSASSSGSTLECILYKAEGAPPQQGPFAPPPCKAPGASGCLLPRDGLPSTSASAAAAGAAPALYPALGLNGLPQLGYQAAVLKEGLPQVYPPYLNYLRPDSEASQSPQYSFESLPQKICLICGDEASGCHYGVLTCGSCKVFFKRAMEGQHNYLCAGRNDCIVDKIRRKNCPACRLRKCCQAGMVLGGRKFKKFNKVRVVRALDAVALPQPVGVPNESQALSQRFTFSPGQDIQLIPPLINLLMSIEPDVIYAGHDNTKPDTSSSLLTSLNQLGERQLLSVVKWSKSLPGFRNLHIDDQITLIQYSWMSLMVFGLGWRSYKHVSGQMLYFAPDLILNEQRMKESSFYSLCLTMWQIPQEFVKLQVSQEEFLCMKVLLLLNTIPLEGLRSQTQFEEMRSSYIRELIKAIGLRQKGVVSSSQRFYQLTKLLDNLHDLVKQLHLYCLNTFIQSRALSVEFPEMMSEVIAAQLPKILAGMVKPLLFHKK

[14] = system: Ca2+ channel (L, dihydropyridine site); assay: competitive radioligand binding assay, Ca2+ channel (L, dihydropyridine site) (antagonist radioligand); settings: 10 μM
[15] = system: Ca2+ channel (L, diltiazem site) (benzothiazepines); assay: competitive radioligand binding assay, Ca2+ channel (L, diltiazem site) (benzothiazepines) (antagonist radioligand); settings: 10 μM
[16] = system: SKCa channel; assay: competitive radioligand binding assay, SKCa channel (antagonist radioligand); settings: 10 μM
[17] = system: Na+ channel (site 2); assay: competitive radioligand binding assay, Na+ channel (site 2) (antagonist radioligand); settings: 10 μM
[18] = system: LnCAP cells; assay: Inhibition of DHT-stimulated proliferation of LnCAP cells; assay type: cell-based, human
Method: The expression of PSA was measured in the culture medium 24 hours thereafter (FIG. 1). […] The LnCAP cells were cultured for a further 5 days and the number of viable cells was then calculated.
FIG. 2. Inhibition of DHT-stimulated proliferation of LnCAP cells.

[19] = system: CYP 3A; assay: CYP 3A induction assay; assay type: in vitro ADME
[20] = Maximum tolerated dose, peroral once a day for 5 days in CD1 male mice; assay type: in vivo
Method: The maximum tolerated doses (MTD) of novel antagonists (R)-1 and their analog Ia were determined in experiments on CD1 male mice at peroral administration once a day for 5 days in doses of 10, 30, and 100 mg/kg. The compound was dissolved in sterile water with addition of Tween 80. Sterile water with Tween 80 was given to control animals (Placebo group). Animals' body weight and mortality rate were estimated. Statistical comparison of groups was carried out according to a non-parametric ANOVA test using Statistica software.

Compound: CNC(=O)c1ccc(N2C(=S)N(c3ccc(C#N)c(C(F)(F)F)c3)C(=O)[C@]23CCOC3)cc1F [(R)-1, 4-[(R)-3-(4-cyano-3-trifluoromethyl-phenyl)-4-oxo-2-thioxo-7-oxa-1,3-diaza-spiro[4.4]non-1-yl]-2-fluoro-N-methyl-benzamide]
- % Inhibition [1]: −3.7%
- % Inhibition [2]: −16.6%
- inhibition at 10 µM [3]: -4.5%
- inhibition at 10 µM [4]: -0.1%
- inhibition at 10 µM [5]: -2.4%
- inhibition at 10 µM [6]: -4.8%
- % Inhibition ([7]; 10 μM, GABA (non-selective) (agonist radioligand)): 7.1%
- activity towards GABA (non-selective) receptors (in words) ([7]; Table 1, Target 24): practically inactive
- inhibition at 10 µM [8]: 0.7%
- inhibition at 10 µM [9]: -13%
- inhibition at 10 µM [10]: -13.9%
- % Inhibition [11]: 0.5%
- % Inhibition [12]: −7.6%
- inhibition at 10 µM [13]: 66.6%
- % Inhibition [14]: −2.5%
- % Inhibition [15]: −23.6%
- % Inhibition [16]: −4.8%
- % Inhibition [17]: −11.6%
- IC50 ([18]; Homo sapiens, LNCaP, 120 h, read-out: IC50, inhibition of DHT-induced cell proliferation): 30 nM
- fold more efficient than III in inhibiting DHT-induced cell proliferation ([18]; LnCAP cells, versus III): around 8 fold
- fold more efficient than Ia in inhibiting DHT-induced cell proliferation ([18]; LnCAP cells, versus Ia): around 6 fold
- Positive control, % (CYP 3A induction) ([19]; Concentration 1 μM): 0.0 ± 2.0%
- Positive control, % (CYP 3A induction) ([19]; Concentration 10 μM): 42.0 ± 6.1%
- MTD at 5 days ([20]; CD1, mouse, in vivo, oral, male CD-1 mice, peroral once a day for 5 days): > 100 mg/kg
- body weight versus control animals (Placebo group) ([20]; CD1 male mice, peroral, 100 mg/kg): no statistical significance was observed
- mortality ([20]; CD1 male mice, peroral, doses below 100 mg/kg (10 and 30 mg/kg)): did not lead to death
- toxicity compared with the (Ia) antagonist ([20]; male CD-1 mice, from MTD): more than three times less toxic
